Laboratory results published in ChEMBL document CHEMBL5209586, “Membrane potential-based assay for SLC34A1 using HEK293 JumpIn SLC34A1 OE cells” (2022).

Biological target: T1, Sodium-dependent phosphate transport protein 2A (Homo sapiens, UniProt Q06495)
T1 sequence (Q06495 whole entry): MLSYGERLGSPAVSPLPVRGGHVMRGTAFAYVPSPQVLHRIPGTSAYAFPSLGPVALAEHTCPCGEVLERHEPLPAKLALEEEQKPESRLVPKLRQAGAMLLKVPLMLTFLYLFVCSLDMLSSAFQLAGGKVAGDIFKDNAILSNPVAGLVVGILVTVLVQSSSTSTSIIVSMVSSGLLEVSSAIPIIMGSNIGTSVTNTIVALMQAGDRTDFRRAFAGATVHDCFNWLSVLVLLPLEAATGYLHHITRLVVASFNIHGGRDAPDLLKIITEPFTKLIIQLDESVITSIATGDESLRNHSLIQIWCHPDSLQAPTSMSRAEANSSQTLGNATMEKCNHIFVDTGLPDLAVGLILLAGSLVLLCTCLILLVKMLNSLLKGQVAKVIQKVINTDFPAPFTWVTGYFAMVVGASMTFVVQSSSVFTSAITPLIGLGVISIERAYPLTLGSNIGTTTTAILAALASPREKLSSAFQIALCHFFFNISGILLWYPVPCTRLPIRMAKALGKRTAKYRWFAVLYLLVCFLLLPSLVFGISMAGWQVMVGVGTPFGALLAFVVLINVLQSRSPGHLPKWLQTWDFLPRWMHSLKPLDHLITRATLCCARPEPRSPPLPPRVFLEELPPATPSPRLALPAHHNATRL
Description: Substrate uptake by the Sodium-Dependent Phosphate Transport Protein 2A (NPT2a, SLC34A1) as assessed by the fluorescent FLIPR membrane potential dye in HEK-293 JumpIN-SLC34A1 cells (PubChem AID: 1794813)

EC50	SMILES
39 µM	O=P([O-])(O)O.[K+] [POTASSIUM PHOSPHATE, MONOBASIC]
32 µM	O=P([O-])([O-])O.[Na+].[Na+] [SODIUM PHOSPHATE, DIBASIC, ANHYDROUS]
